Test results published in patent EP4617273A1, “FUSED TRICYCLIC PARP1 INHIBITOR, PREPARATION METHOD THEREFOR, AND USE THEREOF” (Haihe Biopharma Co., Ltd., priority 2022, dated 2024).
Like-named read-outs stand apart in the source and are kept apart here. Blank lines part the entries; values can stand above or below the compound they belong to.

Tests used:
[1] = molecular target: T1, recombinant human PARP2 protein (Homo sapiens, UniProt Q9UGN5); assay: PARP2 enzymatic inhibitory activity, histone substrate, chemiluminescent ELISA; type: biochemical
T1 construct: purchased BPS 80502
T1 sequence (Q9UGN5 whole entry): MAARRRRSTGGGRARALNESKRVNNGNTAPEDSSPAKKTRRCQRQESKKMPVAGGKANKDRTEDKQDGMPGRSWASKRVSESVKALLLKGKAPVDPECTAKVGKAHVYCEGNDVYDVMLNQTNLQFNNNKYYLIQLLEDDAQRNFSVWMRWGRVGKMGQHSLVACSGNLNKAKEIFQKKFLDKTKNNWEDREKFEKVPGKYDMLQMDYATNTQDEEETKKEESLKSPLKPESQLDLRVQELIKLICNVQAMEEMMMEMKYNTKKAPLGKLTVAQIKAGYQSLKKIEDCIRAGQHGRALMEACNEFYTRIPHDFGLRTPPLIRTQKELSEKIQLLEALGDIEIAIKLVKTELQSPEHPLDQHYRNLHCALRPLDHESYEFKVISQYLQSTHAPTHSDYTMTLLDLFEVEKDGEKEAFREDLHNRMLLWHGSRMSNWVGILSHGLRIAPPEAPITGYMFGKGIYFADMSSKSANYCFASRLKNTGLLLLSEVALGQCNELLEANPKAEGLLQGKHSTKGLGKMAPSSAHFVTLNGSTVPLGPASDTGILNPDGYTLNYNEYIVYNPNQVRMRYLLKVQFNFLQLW
Experimental: The PARP2 inhibitory activity assay was performed as in Experimental Method 1, except that PARP1 solution in step 2 of "3. Ribosylation reaction" was replaced with recombinant human PARP2 solution, and 500 µM NAD+ was not added in step 5 of the ribosylation reaction. Table 1. IC50 for inhibition of PARP1/2 enzymes by compounds of the present invention

[2] = molecular target: T2, Recombinant human PARP1 protein (Homo sapiens, UniProt P09874); assay: biochemical
T2 sequence (P09874 whole entry): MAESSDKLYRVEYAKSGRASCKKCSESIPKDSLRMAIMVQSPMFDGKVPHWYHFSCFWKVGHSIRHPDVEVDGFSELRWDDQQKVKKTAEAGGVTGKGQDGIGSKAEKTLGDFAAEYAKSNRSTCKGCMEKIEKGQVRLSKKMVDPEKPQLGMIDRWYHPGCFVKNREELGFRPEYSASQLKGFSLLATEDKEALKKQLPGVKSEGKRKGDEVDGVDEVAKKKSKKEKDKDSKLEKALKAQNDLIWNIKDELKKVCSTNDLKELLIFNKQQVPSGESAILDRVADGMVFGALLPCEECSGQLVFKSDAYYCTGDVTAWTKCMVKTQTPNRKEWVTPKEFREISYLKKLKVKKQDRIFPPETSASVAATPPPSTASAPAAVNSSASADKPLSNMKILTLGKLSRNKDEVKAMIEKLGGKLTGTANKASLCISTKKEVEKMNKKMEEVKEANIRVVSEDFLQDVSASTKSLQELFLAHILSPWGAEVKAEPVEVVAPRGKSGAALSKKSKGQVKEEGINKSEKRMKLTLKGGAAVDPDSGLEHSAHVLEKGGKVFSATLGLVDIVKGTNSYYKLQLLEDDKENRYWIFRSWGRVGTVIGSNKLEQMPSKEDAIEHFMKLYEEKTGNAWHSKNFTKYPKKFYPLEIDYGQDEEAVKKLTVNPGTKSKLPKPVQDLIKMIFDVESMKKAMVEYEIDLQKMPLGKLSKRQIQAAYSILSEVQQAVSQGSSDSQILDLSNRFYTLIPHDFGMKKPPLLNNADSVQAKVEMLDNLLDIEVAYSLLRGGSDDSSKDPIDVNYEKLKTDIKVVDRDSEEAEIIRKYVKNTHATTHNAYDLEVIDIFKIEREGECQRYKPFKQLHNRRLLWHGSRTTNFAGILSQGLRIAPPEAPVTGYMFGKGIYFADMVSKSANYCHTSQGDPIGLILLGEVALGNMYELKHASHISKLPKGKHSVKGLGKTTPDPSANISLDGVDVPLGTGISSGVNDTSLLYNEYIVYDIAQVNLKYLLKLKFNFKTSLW
Experimental: (§1) The PARP1/2 inhibitory activity of the compounds of the present invention was tested in an assay using Histone as a substrate.
(§2) Aim of the assay: to test the PARP1/2 enzymatic activity inhibition IC50 values of the compounds of the present application according to established experimental methods.
(§3) 1. Compound Configuration: Dilute the compounds with DMSO in 384-well plates to a 1000-fold final concentration and set aside.
(§4) 1) Dilute Histone with PBS, add 25uL of Histone mixture to each well and incubate for 2 h. 2) Wash each well 5 times using PBST solution. Remove the solution with a clean paper towel.3) Add 75 uL of Blocking buffer to each well and incubate for 1 h at rt. 4) Wash each well 5 times using PBST solution. Remove the solution with a clean paper towel.
(§5) 2) Use 1× Assay buffer to prepare 2.5× final concentration of PARP1 solution. 3) Add 10 uL of enzyme solution to the compound wells and Max control wells; add 10 uL of 1× Assay buffer. […] 6) Centrifuge at 1000 rpm for 60 seconds and incubate at rt for 2 h. 7) Each well was washed 5 times with PBST solution. Remove the solution with a clean paper towel.
(§6) 1) Prepare Streptavidin-HRP solution, add 25 µL to each well, centrifuge at 1000 rpm for 60 sec, and incubate at rt for 30 min. 2) Wash each well 5 times using PBST solution. Remove the solution with a clean paper towel. 3) Add 50 µL of ELISA Chemiluminescent Substrate per well. 4) Centrifuge at 1000 rpm for 60 seconds and read with EnSight after 5 min.
(§7) The inhibition rate was calculated using the following formula: % inhibition = (max signal - compound signal) / (max signal - min signal) × 100, where 'min signal' is the mean value of negative control wells and 'max signal' is the mean value of positive control wells.
(§8) Fitting the quantitative effect curve: using the log value of the concentration as the X-axis and the percentage inhibition as the Y-axis; using the log(inhibitor) vs. response-variable slope method in software GraphPadPrism5 to fit the quantitative effect curve to calculate the IC50 value for the inhibition of the enzyme activity by the compounds of the present invention. The fitting formula is: Y=Bottom+ (Top-Bottom)/(1+10^((logIC50-X)*HillSlope)).

[3] = molecular target: T2, Recombinant human PARP1 protein; assay: PARP1 enzymatic inhibitory activity, histone substrate, chemiluminescent ELISA; settings: PARP2 IC50 over PARP1 IC50
Experimental: as §1, §2, §3, §4, §5, §6, §7, §8

MDA-MB-436 cells = assay: MDA-MB-436 cell proliferation inhibition test (CellTiter-Glo, 7 days); type: cell-based; settings: Homo sapiens, MDA-MB-436, 168 h, 7 days incubation
Experimental: Human breast cancer MDA-MB-436 (purchased from ATCC) cells were cultured in DMEM medium (supplemented with 10% fetal bovine serum with 1% dual antibody) at 37 °C, 5% CO2. The cells were taken from the logarithmic growth phase, digested and prepare cell suspension witha certain concentration, which was inoculated into 96-well plates. 100 µL of cell suspension was added to each well of the 96-well plates, incubated overnight, then different concentrations of compounds were added, and the cells were incubated in the cell culture incubator for 7 days. At the end of incubation, 50 µL of CellTiter-Glo reagent was added to each well, mixed with a microplate and shaked for 2 min, and left at rt for 60 min, then the fluorescence value was read with a Spark® multimode microplate reader. […] Table 2. proliferation inhibitory activity of compounds of the present invention on MDA-MB-436 cells

MDR1 = assay: MDR1-MDCK II cell model of bidirectional permeability; type: in vitro ADME; settings: dog, 2 µM, 2.5 h; for Papp A→B at 2.5 h, 2 µM: apical-to-basolateral; for Papp B→A at 2.5 h, 2 µM: basolateral-to-apical
Experimental: 2 µM of the test compound was added to the wells at the apical side or the basolateral side of the monolayer of cells and incubated for 2.5 h at 37.0°C in a 5.0% CO2 incubator. Cell monolayer integrity was determined by Lucifer yellowrejection assay. The buffer was removed from the apical side and basolateral side, and the concentration of the subject compounds was determined using LC-MS/MS. The concentration data were used to calculate the apparent permeabilitycoefficients of apical-to-basolateral (A-B) and basolateral-to-apical (B-A)side, and to calculate efflux ratio with the formula: Efflux Ratio = Papp (B-A) / Papp (A-B) Table 3. bidirectional permeability of MDR1-MDCK II cells for compounds of the present invention

[4] = histone substrate, 500 µM NAD+ not added, read-out: PARP2 IC50

SMILES: CNC(=O)c1ccc(N2CCN(Cc3ccc4c(c3F)NC(=O)N3C4=NC[C@@H]3C)CC2)c(Cl)n1 [Compound 156]
IC50 (MDA-MB-436 cells): 25 nM
Papp A→B at 2.5 h, 2 µM (MDR1): 16.3 ×10⁻⁶ cm/s
Papp B→A at 2.5 h, 2 µM (MDR1): 21.1 ×10⁻⁶ cm/s
IC50 [2]: 1.9 nM

SMILES: CNC(=O)c1ccc(N2CCN(Cc3ccc4c(c3)NC(=O)N3CCCN=C43)CC2)c(Cl)n1 [Compound 191]
IC50 [1, 4]: 296 nM
IC50 [2]: 0.9 nM
PARP1/2 Fold selectivity [3]: 323

SMILES: CNC(=O)c1ccc(N2CCN(Cc3ccc4c(c3F)NC(=O)N3CC(C)CN=C43)CC2)c(F)n1 (stereo not shown) [Compound 144]
IC50 [1, 4]: > 10000 nM
IC50 [2]: 5.2 nM
PARP1/2 Fold selectivity [3]: >1923

SMILES: N#Cc1ccc(N2CCN(Cc3ccc4c(c3F)NC(=O)N3CCCN=C43)CC2)nc1 [Compound 188]
IC50 [1, 4]: 728 nM
IC50 [2]: 1.56 nM
PARP1/2 Fold selectivity [3]: 466.3

SMILES: CCNC(=O)c1ccc(N2CCN(Cc3ccc4c(c3F)NC(=O)N3C[C@@H](C)N=C43)CC2)c(C)n1 [Compound 34]
IC50 [1, 4]: 780 nM
IC50 [2]: 1.83 nM
PARP1/2 Fold selectivity [3]: 426.4

SMILES: CNC(=O)c1ccc(N2CCN(Cc3ccc4c(c3F)NC(=O)N3CC(C)(C)N=C43)CC2)c(F)n1 [Compound 136]
IC50 [1, 4]: 8870 nM
IC50 [2]: 11.3 nM
PARP1/2 Fold selectivity [3]: 785

SMILES: O=C(NC1CC1)c1ccc(N2CCN(Cc3ccc4c(c3F)NC(=O)N3CCCN=C43)CC2)c(F)n1 [Compound 182]
IC50 [1, 4]: 547 nM
IC50 [2]: 1.83 nM
PARP1/2 Fold selectivity [3]: 299

SMILES: CNC(=O)c1ccc(N2CCN(Cc3ccc4c(c3F)NC(=O)N3C[C@@H](F)CN=C43)CC2)c(F)n1 [Compound 149]
IC50 [1]: 893 nM
IC50 [2]: 1.6 nM
PARP1/2 Fold selectivity [3]: 557.9

SMILES: CCNC(=O)c1ccc(N2CCN(Cc3ccc4c(c3F)NC(=O)N3C[C@@H](C)N=C43)CC2)c(Cl)n1 [Compound 185]
IC50 [1, 4]: 894 nM
IC50 [2]: 1.09 nM
PARP1/2 Fold selectivity [3]: 820.2

SMILES: CNC(=O)c1ccc(N2CCN(Cc3ccc4c(c3Cl)NC(=O)N3CCN=C43)CC2)c(F)n1 [Compound 134]
IC50 [1, 4]: 3680 nM
IC50 [2]: 2.8 nM
PARP1/2 Fold selectivity [3]: 1313.2

SMILES: CNC(=O)c1ccc(N2CCN(Cc3ccc4c(c3F)NC(=O)N3C[C@H](F)CN=C43)CC2)c(F)n1 [Compound 147]
IC50 [1, 4]: 278 nM
IC50 (MDA-MB-436 cells): 2.1 nM
IC50 [2]: 1 nM
PARP1/2 Fold selectivity [3]: 277.7

SMILES: CNC(=O)c1ccc(N2CCN(Cc3ccc4c(c3F)NC(=O)N3CC5(CC5)N=C43)CC2)c(F)n1 [Compound 138]
IC50 (MDA-MB-436 cells): 3 nM
Papp A→B at 2.5 h, 2 µM (MDR1): 14.7 ×10⁻⁶ cm/s
Papp B→A at 2.5 h, 2 µM (MDR1): 17 ×10⁻⁶ cm/s

SMILES: CNC(=O)c1ccc(N2CCN(Cc3ccc4c(c3F)NC(=O)N3CC[C@H](C)N=C43)CC2)c(F)n1 [Compound 142]
IC50 [1, 4]: > 10000 nM
IC50 [2]: 5.6 nM
PARP1/2 Fold selectivity [3]: >1756

SMILES: C[C@@H]1CN2C(=O)Nc3c(ccc(CN4CCN(c5ccc(C(=O)NC6CC6)nc5Cl)CC4)c3F)C2=N1 [Compound 201]
IC50 [1, 4]: 1550 nM
IC50 [2]: 1.2 nM
PARP1/2 Fold selectivity [3]: 1324

Now from value to compound:

IC50 [1, 4]: 21.7 nM
IC50 [2]: 0.42 nM
PARP1/2 Fold selectivity [3]: 51.7
SMILES: CNC(=O)c1ccc(N2CCN(C(C)c3ccc4c(c3)[nH]c(=O)c3cccn34)CC2)cn1 (stereo not shown) [Compound 6]

IC50 [1, 4]: 522 nM
IC50 (MDA-MB-436 cells): 3.7 nM
IC50 [2]: 1 nM
PARP1/2 Fold selectivity [3]: 521.6
SMILES: CNC(=O)c1ccc(N2CCN(Cc3ccc4c(c3)[nH]c(=O)c3nc(C)oc34)CC2)c(F)n1 [Compound 102]

IC50 [1, 4]: 561 nM
IC50 [2]: 1.07 nM
PARP1/2 Fold selectivity [3]: 524.6
SMILES: CNC(=O)c1ccc(N2CCN(Cc3ccc4c(c3)NC(=O)N3CCN=C43)CC2)c(F)n1 [Compound 124]

IC50 [1, 4]: > 10000 nM
IC50 [2]: 17.6 nM
PARP1/2 Fold selectivity [3]: >568
SMILES: CNC(=O)c1ccc(N2CCN(Cc3ccc4c(c3F)NC(=O)N3C4=NCCC3C)CC2)c(F)n1 (stereo not shown) [Compound 150]

IC50 [1, 4]: 313 nM
IC50 [2]: 3.6 nM
PARP1/2 Fold selectivity [3]: 86.8
SMILES: CNC(=O)c1ccc(N2CCN(C(C)c3ccc4c(c3)[nH]c(=O)c3cnn(C)c34)CC2)c(F)n1 (stereo not shown) [Compound 15]

IC50 [1, 4]: 358 nM
IC50 (MDA-MB-436 cells): 4.6 nM
IC50 [2]: 0.8 nM
PARP1/2 Fold selectivity [3]: 447.6
SMILES: CNC(=O)c1ccc(N2CCN(Cc3ccc4c(c3)[nH]c(=O)c3nn(C)cc34)CC2)c(F)n1 [Compound 22]

IC50 [1, 4]: 214 nM
IC50 (MDA-MB-436 cells): < 1.52 nM
IC50 [2]: 0.57 nM
PARP1/2 Fold selectivity [3]: 374.9
SMILES: CNC(=O)c1ccc(N2CCN(C(C)c3ccc4c(c3)[nH]c(=O)c3ccnn34)CC2)c(F)n1 (stereo not shown) [Compound 12]

IC50 [1, 4]: 1300 nM
IC50 (MDA-MB-436 cells): < 1.52 nM
IC50 [2]: 0.8 nM
PARP1/2 Fold selectivity [3]: 1626.3
SMILES: CNC(=O)c1ccc(N2CCN(Cc3ccc4c([nH]c(=O)c5ccnn54)c3F)CC2)c(Cl)n1 [Compound 113]

IC50 [1, 4]: 204 nM
IC50 [2]: 0.38 nM
PARP1/2 Fold selectivity [3]: 536.3
SMILES: CNC(=O)c1ccc(N2CCN(C(C)c3ccc4c([nH]c(=O)c5cccn54)c3F)CC2)c(F)n1 (stereo not shown) [Compound 7]

IC50 [1, 4]: 118 nM
IC50 [2]: 2.04 nM
PARP1/2 Fold selectivity [3]: 57.9
SMILES: CNC(=O)c1ccc(N2CCN(C(C)c3ccc4c([nH]c(=O)c5cccn54)c3F)CC2)cn1 (stereo not shown) [Compound 8]

IC50 [1, 4]: 3150 nM
IC50 [2]: 2.87 nM
PARP1/2 Fold selectivity [3]: 1098.6
SMILES: CNC(=O)c1ccc(N2CCN(C(C)c3ccc4c([nH]c(=O)c5ccnn54)c3F)CC2)c(F)n1 (stereo not shown) [Compound 13]

IC50 [1, 4]: 1280 nM
IC50 (MDA-MB-436 cells): 15.3 nM
IC50 [2]: 1.2 nM
PARP1/2 Fold selectivity [3]: 1064
SMILES: CNC(=O)c1ccc(N2CCN(Cc3ccc4c(c3F)NC(=O)N3CC(C)N=C43)CC2)c(F)n1 (stereo not shown) [Compound 131]

IC50 [1, 4]: 514 nM
IC50 [2]: 0.95 nM
PARP1/2 Fold selectivity [3]: 541.5
SMILES: CNC(=O)c1ccc(N2CCN(C(C)c3ccc4c(c3F)NC(=O)N3CC5(CC5)N=C43)CC2)c(F)n1 (stereo not shown) [Compound 173]

IC50 [1, 4]: 1870 nM
IC50 [2]: 16.5 nM
PARP1/2 Fold selectivity [3]: 113.5
SMILES: CNC(=O)c1ccc(OC2CCN(Cc3ccc4c(c3)[nH]c(=O)c3ccnn34)C2)cn1 (stereo not shown) [Compound 75]

IC50 [1, 4]: 97.5 nM
IC50 (MDA-MB-436 cells): 2.2 nM
IC50 [2]: 0.47 nM
PARP1/2 Fold selectivity [3]: 207.4
SMILES: CNC(=O)c1ccc(N2CCN(Cc3ccc4c(c3F)NC(=O)N3CC(F)(F)CN=C43)CC2)c(Cl)n1 [Compound 159]

IC50 [1, 4]: 1400 nM
IC50 (MDA-MB-436 cells): 22.6 nM
IC50 [2]: 1.8 nM
PARP1/2 Fold selectivity [3]: 466.3
SMILES: CNC(=O)c1ccc(N2CCN(Cc3ccc4c(c3F)NC(=O)N3C4=NC[C@@H]3C)CC2)c(F)n1 [Compound 137]

IC50 [1, 4]: 17.3 nM
IC50 [2]: 0.15 nM
PARP1/2 Fold selectivity [3]: 115.3
SMILES: CNC(=O)c1ccc(N2CCN(C(C)c3ccc4c(c3)[nH]c(=O)c3cccn34)CC2)c(F)n1 (stereo not shown) [Compound 5]

IC50 [1, 4]: 893 nM
IC50 [2]: 1.46 nM
PARP1/2 Fold selectivity [3]: 611.4
SMILES: CNC(=O)c1ccc(N2CCN(Cc3ccc4c(c3F)NC(=O)N3C4=NC[C@@H]3C)CC2)c(C)n1 [Compound 155]

IC50 [1, 4]: 829 nM
IC50 (MDA-MB-436 cells): 1.4 nM
IC50 [2]: 0.9 nM
PARP1/2 Fold selectivity [3]: 922.1
SMILES: CNC(=O)c1ccc(N2CCN(Cc3ccc4c(c3)[nH]c(=O)c3nc(C)sc34)CC2)c(F)n1 [Compound 103]
